According to patent US20020137929A1, “1 - (3-heterocyclylphenyl) isothiourea, -isourea, -guanidine and -amidine herbicidal agents” (Intellectual Property Department, BASF Aktiengesellschaft, priority 1998, published 2002):

Experiments:
[1] = test system: IPOHE (Morningglory, Ivyleaf); experiment: Preemergence herbicidal evaluation; type: in vivo, Ipomoea hederacea; conditions: rated 4-5 weeks after treatment; for IPOHE rating: preemergence, 0-9 scale
Summary of the method: (§1)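 Scores (0–9) reflect visual comparison with control plants for stand, vigor, malformation, size and chlorosis. Compound was applied to the soil after sowing, before emergence, as an aqueous acetone spray (about 0.0156–0.500 kg/ha), and cups were kept in a greenhouse for 4–5 weeks.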

ECHCG (Barnyardgrass) = experiment: Postemergence herbicidal evaluation; type: in vivo, Echinochloa crus-galli; conditions: for ECHCG herbicidal rating: postemergence
Summary of the method: (§2)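 First, seedlings were raised for around two weeks. Next, test material in 50/50 acetone/water containing 0.5% TWEEN 20 was sprayed through a nozzle at 40 psi, equivalent to about 0.0156–0.500 kg/ha. Finally, after 4–5 weeks in the greenhouse, plants were rated 0–9.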

[2] = test system: ECHORC (Watergrass (Calif.)); experiment: Preemergence weed control under flooded paddy conditions; type: in vivo, Echinochloa oryzoides; conditions: rated 3-4 weeks after treatment
Summary of the method: (§3)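 Seeds or propagules sown in top 0.5 cm of silt loam soil, flooded 1.5 to 3 cm above surface throughout. Compound in 50/50 v/v aqueous/acetone pipetted into flood water at about 0.0313 to 0.500 kg/ha. Visual 0-9 rating versus control after three to four weeks in greenhouse.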

CYPSE (Flatsedge) = experiment: Postemergence weed control under flooded paddy conditions; type: in vivo, Cyperus serotinus; conditions: postemergence weeds
Summary of the method: (§4)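 With weeds 3 to 5 cm tall and rice at the 1.5 to 2.5 leaf stage, containers were flooded and water held 1.5 to 3 cm above soil. Compounds in 50/50 v/v aqueous/acetone went into the flood water at about 0.0313 to 0.500 kg/ha a.i. Effects were visually rated 0–9 against controls after three to four weeks in the greenhouse.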

[3] = test system: TRZAWR (Wheat, Winter, cv Riband); experiment: Preemergence herbicidal evaluation; type: in vivo, Triticum aestivum; conditions: rated 4-5 weeks after treatment; for TRZAWR rating: preemergence, 0-9 scale
Summary of the method: as §1

[4] = test system: SAGPY (Arrowhead (Pygmaea)); experiment: Postemergence weed control under flooded paddy conditions; type: in vivo, Sagittaria pygmaea; conditions: postemergence weeds
Summary of the method: as §4

ABUTH (Velvetleaf) = experiment: Postemergence herbicidal evaluation; type: in vivo, Abutilon theophrasti; conditions: for ABUTH herbicidal rating: postemergence
Summary of the method: as §2

ZEAMX (Corn, Field) = experiment: Preemergence herbicidal evaluation; type: in vivo, Zea mays; conditions: rated 4-5 weeks after treatment; for ZEAMX rating: preemergence, 0-9 scale
Summary of the method: as §1

SETVI (Foxtail, Green) = experiment: Postemergence herbicidal evaluation; type: in vivo, Setaria viridis; conditions: for SETVI herbicidal rating: postemergence
Summary of the method: as §2

ORYSAT (Rice, Tebonnet) = experiment: Postemergence herbicidal evaluation; type: in vivo, Oryza sativa, (L.) Tebonnet; conditions: for ORYSAT herbicidal rating: postemergence
Summary of the method: as §2

CYPIR (Rice Flatsedge) [5] = experiment: Postemergence weed control under flooded paddy conditions; type: in vivo, Cyperus iria; conditions: postemergence weeds
Summary of the method: as §4

MOOVA (Monochoria) = experiment: Preemergence weed control under flooded paddy conditions; type: in vivo, Monochoria vaginalis; conditions: rated 3-4 weeks after treatment
Summary of the method: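 Ratings on a 0-9 visual scale cover stand, vigor, malformation, size, chlorosis and overall appearance relative to a control, taken three to four weeks post-treatment. Application was into flood water over freshly sown silt loam at roughly 0.0313 to 0.500 kg/ha.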

CYPIR (Rice Flatsedge) [6] = experiment: as above; type: in vivo, Cyperus iria; conditions: rated 3-4 weeks after treatment
Summary of the method: as §3

GALAP (Galium) = experiment: Postemergence herbicidal evaluation; type: in vivo, Galium aparine; conditions: for GALAP herbicidal rating: postemergence
Summary of the method: as §2

[7] = rate 0.0313 kg/ha, 3-4 weeks after treatment
[8] = rate 0.0625 kg/ha, 3-4 weeks after treatment
[9] = rate 0.1250 kg/ha, 3-4 weeks after treatment
[10] = rate 0.2500 kg/ha, 3-4 weeks after treatment
[11] = Rate 0.0313 kg/ha, rated 3 to 4 weeks after treatment
[12] = Rate 0.0625 kg/ha, rated 3 to 4 weeks after treatment
[13] = Rate 0.1250 kg/ha, rated 3 to 4 weeks after treatment
[14] = Rate 0.2500 kg/ha, rated 3 to 4 weeks after treatment

SMILES: COC(=O)CCCN1C(=O)CSC1=Nc1cc(-n2c(=O)cc(C(F)(F)F)n(C)c2=O)c(F)cc1Cl [Compound 29, Methyl 2-{{2-chloro-5-[3,6-dihydro-3-methyl-2,6-dioxo-4-(trifluoromethyl)-1(2H)-pyrimidinyl]-4-fluorophenyl}imino}-4-oxo-3-thiazolidinebutyrate]
- Preemergence herbicidal rating IPOHE ([1]; rate 0.0625 kg/ha): 0.0
- Preemergence herbicidal rating IPOHE ([1]; rate 0.1250 kg/ha): 0.0
- Preemergence herbicidal rating IPOHE ([1]; rate 0.2500 kg/ha): 4.0
- Postemergence herbicidal rating ECHCG (ECHCG (Barnyardgrass); Rate 0.0158 kg/ha): 0.0
- Postemergence herbicidal rating ECHCG (ECHCG (Barnyardgrass); Rate 0.0315 kg/ha): 1.0
- Postemergence herbicidal rating ECHCG (ECHCG (Barnyardgrass); Rate 0.0630 kg/ha): 4.0
- Herbicidal rating ECHORC ([2]; 0.0313 kg/ha): 4.0
- Herbicidal rating ECHORC ([2]; 0.0625 kg/ha): 7.0
- Herbicidal rating ECHORC ([2]; 0.1250 kg/ha): 7.0
- Herbicidal rating ECHORC ([2]; 0.2500 kg/ha): 7.0
- Herbicidal rating CYPSE (CYPSE (Flatsedge); [7]): 0.0
- Herbicidal rating CYPSE (CYPSE (Flatsedge); [8]): 0.0
- Herbicidal rating CYPSE (CYPSE (Flatsedge); [9]): 0.0
- Herbicidal rating CYPSE (CYPSE (Flatsedge); [10]): 0.0
- Preemergence herbicidal rating TRZAWR ([3]; rate 0.0625 kg/ha): 0.0
- Preemergence herbicidal rating TRZAWR ([3]; rate 0.1250 kg/ha): 0.0
- Preemergence herbicidal rating TRZAWR ([3]; rate 0.2500 kg/ha): 4.0
- Herbicidal rating SAGPY [4, 7]: 0.0
- Herbicidal rating SAGPY [4, 8]: 0.0
- Herbicidal rating SAGPY [4, 9]: 0.0
- Herbicidal rating SAGPY [4, 10]: 0.0
- Postemergence herbicidal rating ABUTH (ABUTH (Velvetleaf); Rate 0.0158 kg/ha): 9.0
- Postemergence herbicidal rating ABUTH (ABUTH (Velvetleaf); Rate 0.0315 kg/ha): 7.0
- Postemergence herbicidal rating ABUTH (ABUTH (Velvetleaf); Rate 0.0630 kg/ha): 9.0
- Preemergence herbicidal rating ZEAMX (ZEAMX (Corn, Field); rate 0.0625 kg/ha): 0.0
- Preemergence herbicidal rating ZEAMX (ZEAMX (Corn, Field); rate 0.1250 kg/ha): 0.0
- Preemergence herbicidal rating ZEAMX (ZEAMX (Corn, Field); rate 0.2500 kg/ha): 6.0
- Postemergence herbicidal rating SETVI (SETVI (Foxtail, Green); Rate 0.0158 kg/ha): 0.0
- Postemergence herbicidal rating SETVI (SETVI (Foxtail, Green); Rate 0.0315 kg/ha): 1.0
- Postemergence herbicidal rating SETVI (SETVI (Foxtail, Green); Rate 0.0630 kg/ha): 4.0
- Postemergence herbicidal rating ORYSAT (ORYSAT (Rice, Tebonnet); Rate 0.0158 kg/ha): 1.0
- Postemergence herbicidal rating ORYSAT (ORYSAT (Rice, Tebonnet); Rate 0.0315 kg/ha): 3.0
- Postemergence herbicidal rating ORYSAT (ORYSAT (Rice, Tebonnet); Rate 0.0630 kg/ha): 3.5
- Herbicidal rating CYPIR (CYPIR (Rice Flatsedge) [5]; [7]): 0.0
- Herbicidal rating CYPIR (CYPIR (Rice Flatsedge) [5]; [8]): 0.0
- Herbicidal rating CYPIR (CYPIR (Rice Flatsedge) [5]; [9]): 0.0
- Herbicidal rating CYPIR (CYPIR (Rice Flatsedge) [5]; [10]): 0.0
- Herbicidal rating MOOVA (MOOVA (Monochoria); 0.0313 kg/ha): 0.0
- Herbicidal rating MOOVA (MOOVA (Monochoria); 0.0625 kg/ha): 0.0
- Herbicidal rating MOOVA (MOOVA (Monochoria); 0.1250 kg/ha): 0.0
- Herbicidal rating MOOVA (MOOVA (Monochoria); 0.2500 kg/ha): 0.0
- Herbicidal rating CYPIR (CYPIR (Rice Flatsedge) [6]; 0.0313 kg/ha): 0.0
- Herbicidal rating CYPIR (CYPIR (Rice Flatsedge) [6]; 0.0625 kg/ha): 0.0
- Herbicidal rating CYPIR (CYPIR (Rice Flatsedge) [6]; 0.1250 kg/ha): 0.0
- Herbicidal rating CYPIR (CYPIR (Rice Flatsedge) [6]; 0.2500 kg/ha): 0.0
- Postemergence herbicidal rating GALAP (GALAP (Galium); Rate 0.0158 kg/ha): 1.0
- Postemergence herbicidal rating GALAP (GALAP (Galium); Rate 0.0315 kg/ha): 1.0
- Postemergence herbicidal rating GALAP (GALAP (Galium); Rate 0.0630 kg/ha): 7.0

SMILES: C#CCOC(=O)CC1SC(=Nc2cc(-n3c(=O)cc(C(F)(F)F)n(C)c3=O)c(F)cc2Cl)N(C)C1=O (stereo not drawn) [Compound 90, 2-Propynyl 2-{{2-chloro-5-[3,6-dihydro-3-methyl-2,6-dioxo-4-(trifluoromethyl)-1(2H)-pyrimidinyl]-4-fluorophenyl}imino}-3-methyl-4-oxo-5-thiazolidineacetate]
- IPOHE rating ([1]; 0.0313 kg/ha): 1.0
- IPOHE rating ([1]; 0.0625 kg/ha): 4.0
- IPOHE rating ([1]; 0.1250 kg/ha): 9.0
- IPOHE rating ([1]; 0.2500 kg/ha): 9.0
- ECHCG herbicidal rating (ECHCG (Barnyardgrass); rate 0.0158 kg/ha): 3.0
- ECHCG herbicidal rating (ECHCG (Barnyardgrass); rate 0.0315 kg/ha): 5.0
- ECHCG herbicidal rating (ECHCG (Barnyardgrass); rate 0.0630 kg/ha): 9.0
- ECHORC herbicidal effect rating ([2]; 0.0313 kg/ha): 0.0
- ECHORC herbicidal effect rating ([2]; 0.0625 kg/ha): 0.0
- ECHORC herbicidal effect rating ([2]; 0.1250 kg/ha): 0.0
- ECHORC herbicidal effect rating ([2]; 0.2500 kg/ha): 3.0
- Herbicidal rating CYPSE (CYPSE (Flatsedge); [11]): 0.0
- Herbicidal rating CYPSE (CYPSE (Flatsedge); [12]): 0.0
- Herbicidal rating CYPSE (CYPSE (Flatsedge); [13]): 0.0
- Herbicidal rating CYPSE (CYPSE (Flatsedge); [14]): 3.0
- TRZAWR rating ([3]; 0.0313 kg/ha): 0.0
- TRZAWR rating ([3]; 0.0625 kg/ha): 0.0
- TRZAWR rating ([3]; 0.1250 kg/ha): 2.0
- TRZAWR rating ([3]; 0.2500 kg/ha): 7.0
- Herbicidal rating SAGPY [4, 11]: 4.0
- Herbicidal rating SAGPY [4, 12]: 6.0
- Herbicidal rating SAGPY [4, 13]: 9.0
- Herbicidal rating SAGPY [4, 14]: 9.0
- ABUTH herbicidal rating (ABUTH (Velvetleaf); rate 0.0158 kg/ha): 9.0
- ABUTH herbicidal rating (ABUTH (Velvetleaf); rate 0.0315 kg/ha): 9.0
- ABUTH herbicidal rating (ABUTH (Velvetleaf); rate 0.0630 kg/ha): 9.0
- ZEAMX rating (ZEAMX (Corn, Field); 0.0313 kg/ha): 0.0
- ZEAMX rating (ZEAMX (Corn, Field); 0.0625 kg/ha): 0.0
- ZEAMX rating (ZEAMX (Corn, Field); 0.1250 kg/ha): 7.0
- ZEAMX rating (ZEAMX (Corn, Field); 0.2500 kg/ha): 8.0
- SETVI herbicidal rating (SETVI (Foxtail, Green); rate 0.0158 kg/ha): 9.0
- SETVI herbicidal rating (SETVI (Foxtail, Green); rate 0.0315 kg/ha): 9.0
- SETVI herbicidal rating (SETVI (Foxtail, Green); rate 0.0630 kg/ha): 9.0
- ORYSAT herbicidal rating (ORYSAT (Rice, Tebonnet); rate 0.0158 kg/ha): 4.0
- ORYSAT herbicidal rating (ORYSAT (Rice, Tebonnet); rate 0.0315 kg/ha): 6.5
- ORYSAT herbicidal rating (ORYSAT (Rice, Tebonnet); rate 0.0630 kg/ha): 6.5
- Herbicidal rating CYPIR (CYPIR (Rice Flatsedge) [5]; [11]): 0.0
- Herbicidal rating CYPIR (CYPIR (Rice Flatsedge) [5]; [12]): 0.0
- Herbicidal rating CYPIR (CYPIR (Rice Flatsedge) [5]; [13]): 1.0
- Herbicidal rating CYPIR (CYPIR (Rice Flatsedge) [5]; [14]): 3.0
- MOOVA herbicidal effect rating (MOOVA (Monochoria); 0.0313 kg/ha): 9.0
- MOOVA herbicidal effect rating (MOOVA (Monochoria); 0.0625 kg/ha): 9.0
- MOOVA herbicidal effect rating (MOOVA (Monochoria); 0.1250 kg/ha): 9.0
- MOOVA herbicidal effect rating (MOOVA (Monochoria); 0.2500 kg/ha): 9.0
- CYPIR herbicidal effect rating (CYPIR (Rice Flatsedge) [6]; 0.0313 kg/ha): 0.0
- CYPIR herbicidal effect rating (CYPIR (Rice Flatsedge) [6]; 0.0625 kg/ha): 0.0
- CYPIR herbicidal effect rating (CYPIR (Rice Flatsedge) [6]; 0.1250 kg/ha): 1.0
- CYPIR herbicidal effect rating (CYPIR (Rice Flatsedge) [6]; 0.2500 kg/ha): 3.0
- GALAP herbicidal rating (GALAP (Galium); rate 0.0158 kg/ha): 5.0
- GALAP herbicidal rating (GALAP (Galium); rate 0.0315 kg/ha): 7.0
- GALAP herbicidal rating (GALAP (Galium); rate 0.0630 kg/ha): 7.0
